Values belong to the compound of their own block, whether it stands above or below them.
Assays:
His-SiaBb1 = target: T1, His-SiaBb1 (Bifidobacterium bifidum, UniProt A0ABM7ET56); assay: fluorescence sialidase assay; format: biochemical; details: 50 μM recombinant protein, 30 min
T1 construct: gene BBBF_1779; His-tagged; native precursor 1,795 aa with Sec signal and C-terminal TM

[1] = target: T2, His-Sia (sialidase domain of SiaBb2, aa 187 to 553) (Bifidobacterium bifidum, UniProt A0A1Y1C8G4); assay: SPR, His-Sia immobilized on CM5 chip; details: HBS-EP pH 7.4, 25°C; binding decreased by 5 mM Neu5Ac2en; also glycoarray positive
T2 construct: conserved sialidase domain aa 187-553 of 835 aa precursor; N-terminal 6xHis tag; recombinant; biotinylated for glycoarray, immobilized on CM5 chip for SPR; GH33

His-SiaBb2 = target: T3, His-SiaBb2 (Bifidobacterium bifidum, UniProt A0A1Y1C8G4); assay: inhibition of sialidase activity, dose response; format: biochemical; details: maximal inhibition at […]
T3 construct: gene sia2; N-terminal 6xHis tag; native precursor 835 aa with Sec signal and C-terminal TM
T3 sequence (A0A1Y1C8G4 37-810): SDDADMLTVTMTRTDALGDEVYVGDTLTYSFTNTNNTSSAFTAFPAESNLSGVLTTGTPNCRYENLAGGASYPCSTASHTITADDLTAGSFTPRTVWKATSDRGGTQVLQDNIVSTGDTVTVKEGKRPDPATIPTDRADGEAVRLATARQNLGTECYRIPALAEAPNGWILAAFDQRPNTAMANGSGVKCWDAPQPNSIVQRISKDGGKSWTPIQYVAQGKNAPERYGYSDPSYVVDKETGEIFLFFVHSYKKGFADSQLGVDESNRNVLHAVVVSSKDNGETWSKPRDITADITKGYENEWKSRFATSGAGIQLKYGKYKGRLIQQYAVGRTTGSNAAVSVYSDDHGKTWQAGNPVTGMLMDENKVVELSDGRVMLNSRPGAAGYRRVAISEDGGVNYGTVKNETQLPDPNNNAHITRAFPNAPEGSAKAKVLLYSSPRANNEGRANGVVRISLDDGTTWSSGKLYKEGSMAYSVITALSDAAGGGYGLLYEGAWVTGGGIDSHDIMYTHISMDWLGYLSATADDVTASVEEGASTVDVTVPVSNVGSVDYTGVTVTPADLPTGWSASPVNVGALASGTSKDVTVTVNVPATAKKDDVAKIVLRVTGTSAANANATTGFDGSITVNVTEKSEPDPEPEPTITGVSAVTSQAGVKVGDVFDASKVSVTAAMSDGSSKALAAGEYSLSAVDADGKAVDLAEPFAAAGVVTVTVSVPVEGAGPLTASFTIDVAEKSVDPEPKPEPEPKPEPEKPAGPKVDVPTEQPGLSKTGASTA

T1 sequence (A0ABM7ET56 40-1795 limits assumed): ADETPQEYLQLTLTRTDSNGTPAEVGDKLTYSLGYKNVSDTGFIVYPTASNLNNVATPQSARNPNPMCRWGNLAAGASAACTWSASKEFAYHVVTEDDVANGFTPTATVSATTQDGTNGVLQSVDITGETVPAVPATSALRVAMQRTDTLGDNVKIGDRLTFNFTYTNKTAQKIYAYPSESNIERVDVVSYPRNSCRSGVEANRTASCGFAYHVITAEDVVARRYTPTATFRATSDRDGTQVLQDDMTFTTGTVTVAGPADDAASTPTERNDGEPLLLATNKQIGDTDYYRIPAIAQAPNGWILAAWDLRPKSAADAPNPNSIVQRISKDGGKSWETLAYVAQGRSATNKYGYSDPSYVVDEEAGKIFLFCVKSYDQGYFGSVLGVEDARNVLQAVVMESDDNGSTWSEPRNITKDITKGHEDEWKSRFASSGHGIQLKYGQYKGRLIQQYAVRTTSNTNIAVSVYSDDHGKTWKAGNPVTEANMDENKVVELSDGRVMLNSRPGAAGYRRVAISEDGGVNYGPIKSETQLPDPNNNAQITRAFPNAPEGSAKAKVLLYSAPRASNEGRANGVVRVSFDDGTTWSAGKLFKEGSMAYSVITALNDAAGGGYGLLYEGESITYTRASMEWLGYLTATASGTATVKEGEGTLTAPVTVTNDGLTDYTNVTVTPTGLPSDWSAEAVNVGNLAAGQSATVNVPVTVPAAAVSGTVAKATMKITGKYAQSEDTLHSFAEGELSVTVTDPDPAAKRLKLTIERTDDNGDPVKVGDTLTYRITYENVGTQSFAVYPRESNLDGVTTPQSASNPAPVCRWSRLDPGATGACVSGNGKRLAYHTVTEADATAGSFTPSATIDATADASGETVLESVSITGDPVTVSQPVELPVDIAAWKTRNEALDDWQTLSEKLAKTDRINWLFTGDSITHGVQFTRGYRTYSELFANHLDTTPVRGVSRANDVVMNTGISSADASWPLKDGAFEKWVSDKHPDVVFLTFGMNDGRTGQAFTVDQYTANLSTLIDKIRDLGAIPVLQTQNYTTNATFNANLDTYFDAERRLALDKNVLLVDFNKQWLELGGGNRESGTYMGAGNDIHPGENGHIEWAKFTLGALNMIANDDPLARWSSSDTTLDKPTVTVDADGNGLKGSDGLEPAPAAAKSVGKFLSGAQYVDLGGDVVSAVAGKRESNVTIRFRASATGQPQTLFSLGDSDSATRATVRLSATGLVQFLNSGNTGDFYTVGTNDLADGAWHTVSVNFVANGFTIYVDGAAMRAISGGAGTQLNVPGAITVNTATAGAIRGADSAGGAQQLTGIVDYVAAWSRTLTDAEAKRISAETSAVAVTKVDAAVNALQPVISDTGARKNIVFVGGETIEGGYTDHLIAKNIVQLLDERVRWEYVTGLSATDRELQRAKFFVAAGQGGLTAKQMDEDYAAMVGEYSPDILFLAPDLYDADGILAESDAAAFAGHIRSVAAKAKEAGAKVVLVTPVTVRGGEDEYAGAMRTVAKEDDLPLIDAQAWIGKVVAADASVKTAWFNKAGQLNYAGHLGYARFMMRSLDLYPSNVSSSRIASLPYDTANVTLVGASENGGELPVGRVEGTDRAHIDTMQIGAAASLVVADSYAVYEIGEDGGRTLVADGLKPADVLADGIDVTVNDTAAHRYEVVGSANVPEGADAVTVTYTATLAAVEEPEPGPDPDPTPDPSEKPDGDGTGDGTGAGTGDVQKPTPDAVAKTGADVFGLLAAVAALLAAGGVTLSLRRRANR

SMILES: CC(=O)N[C@H]1[C@H]([C@H](O)[C@H](O)CO)OC(Oc2ccc3c(C)cc(=O)oc3c2)(C(=O)O)C[C@@H]1O (stereo partly drawn) [4-MU-Neu5Ac, 2′-(4-methylumbelliferyl)-α-D-N-acetylneuraminic acid]
fluorescence sialidase assay (His-SiaBb1): all sialidase peptides with the exception of His-ΔSia showed time-dependent enzymatic activity

MR at 10 μM (analyte/ligand, end of association) [1]: 1.3
SMILES: CC(=O)N[C@H]1[C@H]([C@H](O)[C@H](O)CO)O[C@@](OC[C@H]2O[C@@H](O[C@H]3[C@H](O)[C@@H](O)C(O)O[C@@H]3CO)[C@H](O)[C@@H](O)[C@H]2O)(C(=O)O)C[C@@H]1O (stereo partly drawn) [6'SL]

SMILES: CC(=O)N[C@H]1[C@H]([C@H](O)[C@H](O)CO)OC(C(=O)O)=C[C@@H]1O [Neu5Ac2en, N-acetyl-2,3-didehydro-2-deoxyneuraminic acid]
inhibition of sialidase activity, dose response (His-SiaBb2): Neu5Ac2en treatment inhibited the sialidase activity of His-SiaBb2 in a dose-dependent manner

Reference: publication PMC5626965, “Bifidobacterium bifidum Extracellular Sialidase Enhances Adhesion to the Mucosal Surface and Supports Carbohydrate Assimilation” (mBio, 2017)
